Experimental data: US5294720A, “1,4-diamino-2,3-dihydroxybutanes” (The DuPont Merck Pharmaceutical Co., priority 1991, dated 1994)
In brackets after ≈: the same amount, converted by molar mass. Where a name gives a salt, the structure may show the parent alone. Read-outs that look alike come from different tables or passages of the source.

What was measured:
HIV(3b) or HIV(Rf) = experiment: HIV cell assay (HIV low multiplicity assay, protection of MT-2 cells from virus induced cell death, XTT); assay type: cell-based, Human immunodeficiency virus; settings: for Cell Assay IC50: unit not given
Procedure: […], a human T-cell line, was cultured in RPMI medium supplemented with 5% (v/v) heat inactivated fetal calf serum (FCS), L-glutamine and gentamycin (GIBCO). Human immunodeficiency virus strains HIV(3b) and HIV (Rf) were propagated in H-9 cells in RPMI with 5% FCS. XTT, benzene-sulfonic acid, 3,3'-[1-[(phenylamino)carbonyl]-3,4-tetrazolium]bis(4-methoxy-6-nitro)-, sodium salt, was obtained from Starks Associates, Inc.
Test compounds were dissolved in dimethyl-sulfoxide to 5 mg/ml and serially diluted into RPMI medium to ten times the desired final concentration. MT-2 cells (5×10E4/0.1 ml) were added to each well of a 96 well culture plate and 0.02 ml of the appropriate test compound solution was added to the cells such that each compound concentration was present in two wells. The cells and compounds were allowed to sit for 30 minutes at room temperature. HIV(3b) or HIV(Rf) (~5×10E5 plaque forming units/ml) was diluted in medium and added to the cell and compound mixtures to give a multiplicity of infection of 0.01 plaque forming unit/cell. The mixtures were incubated for 7 days at 36° C., during which time the virus replicated and caused the death of unprotected cells. The percentage of cells protected from virus induced cell death was determined by the degree of metabolism of the tetrazolium dye, XTT. In living cells, XTT was metabolized to a colored formazan product which was quantitated spectrophoto-metrically at […]. The amount of colored formazan was proportional to the number of cells protected from virus by the test compound. The concentration of compound protecting either 50% (IC50) or 90% (IC90) with respect to an uninfected cell culture was determined.

HIV protease = biological target: T1, HIV protease (Human immunodeficiency virus type 1 group M subtype B, UniProt P04585); experiment: Cell free protease inhibition assay (HIV gag polyprotein cleavage); assay type: biochemical; settings: Table XVII, unit inferred, IC50 per method
T1 construct: inclusion bodies of E. coli harboring plasmid containing HIV protease under the control of the T7 promotor; made in house; host or cells: E. coli (A: crude lysate, lac promotor)
Text: HIV gag polyprotein corresponding to all of p17 and 78 amino acids of p24, produced by in vitro translation using rabbit reticulocyte lysate and mRNA prepared in vitro from plasmid encoding full length gag polyprotein linerized with the restriction enzyme Pst 1. (See S. Erickson-Viitanen et al., Aids Research and Human Retroviruses, 5 (6), 577 (1989) for plasmid construction, and basis for assay).
Source of protease: Either (A) crude E. coli lysate of bacteria harboring a plasmid containing HIV protease under the control of the lac promotor, used at a final concentration of 0.5 mg/ml, or (B) inclusion bodies of E. coli harboring plasmid containing HIV protease under the control of the T7 promotor (Cheng et al., Gene, in press (1990). Such inclusion bodies were solubilized in 8M urea, 50 mM Tris pH 8.0. Protease activity was recovered by dilution of the inclusion bodies 20-fold in buffer containing 50 mM Sodium Acetate, pH 5.5, 1 mM EDTA, 10% glycerol and 5% ethylene glycol. This protease source was used at a final concentration of 0.00875 mg/ml.
Inhibitory compounds were dissolved in sufficient DMSO to make a 25 mM stock concentration. All further dilutions were done in DMSO.
Into sterile test tubes were placed the following:
14 ul HIV protease in Phosphate Buffered Saline (Gibco)
5 ul of in vitro translation products.
Reactions were incubated at 30° C., then quenched by the addition of Sample buffer. See U. K. Laemmli, Nature, 1970, 227:680-685.
One fourth of each sample was analyzed on an 8-16% gradient denaturing acrylamide gel (Novex, Inc), according to Laemmli. Following electrophoresis, gels were fixed, impregnated with Enhance (Du Pont NEN, Boston, Mass.) and dried according to manufacturers instructions (NEN). Dried fluorographs were exposed to film and/or quantitated using an Ambis radioanalytic scanner.
Each group of test compounds was compared to the values obtained for pepstatin, a well known inhibitor of acid proteases. Inhibitory concentration for 50% inhibition (IC50) is determined from plots of log concentration inhibitor versus % inhibition of protease activity.
Biological Activity: IC50 is the concentration necessary for reducing the activity of the enzyme by 50%.

[1] = Human immunodeficiency virus 1, MT2, Table XVII, unit inferred, HIV in MT-2 cells, read-out: Cell Assay IC90
[2] = read-out: Cell Free Assay (converted)
[3] = Human immunodeficiency virus 1, MT2, Table XVII, unit inferred, HIV in MT-2 cells, read-out: Cell Assay IC50

Compound | IC50 (HIV protease; [2]) [µM] | also measured
CSCCC(NC(=O)OC(C)(C)C)C(O)C(O)C(CCSC)NC(=O)OC(C)(C)C (stereo not shown) [Example 1A] | 25.6 | IC90 (HIV(3b) or HIV(Rf); [1]): 6 µg/mL (≈ 12.8 µM); Cell Assay IC50 (HIV(3b) or HIV(Rf); Table XVII, HIV in MT-2 cells): 2
CSCCC(NC(=O)OC(C)(C)C)C(O)C(O)C(CCSC)NC(=O)OC(C)(C)C (stereo not shown) [Example 1B] | 78.9 | Cell Assay IC50 (HIV(3b) or HIV(Rf); Table XVII, HIV in MT-2 cells): 5
CC(C)(C)OC(=O)N[C@@H](Cc1ccccc1)[C@H](O)[C@@H](O)[C@H](Cc1ccccc1)NC(=O)OC(C)(C)C [Example 2A, Bis(1,1-dimethylethyl) (2,3-dihydroxy-1,4-(phenylmethyl)-1,4-butanediyl)biscarbamate (1S,2S,3S,4S)] | 24 | IC50 (HIV(3b) or HIV(Rf); [3]): 10 µg/mL (≈ 20 µM); IC90 (HIV(3b) or HIV(Rf); [1]): 30 µg/mL (≈ 59.9 µM)
CC(C)(C)OC(=O)N[C@@H](Cc1ccccc1)[C@@H](O)[C@H](O)[C@H](Cc1ccccc1)NC(=O)OC(C)(C)C [Example 2B] | 0.34 | IC50 (HIV(3b) or HIV(Rf); [3]): 1.9 µg/mL (≈ 3.8 µM); IC90 (HIV(3b) or HIV(Rf); [1]): 3 µg/mL (≈ 5.99 µM)
CC(C)(C)OC(=O)N[C@@H](Cc1ccccc1)[C@H](O)[C@H](O)[C@H](Cc1ccccc1)NC(=O)OC(C)(C)C [Example 2C, Bis(1,1-dimethylethyl) (2,3-dihydroxy-1,4-(phenylmethyl)-1,4-butanediyl)biscarbamate (1S,2S,3R,4S)] | 61.9 | –
CC(C)(C)OC(=O)NCC(O)C(O)CNC(=O)OC(C)(C)C (stereo not shown) [Example 3, Bis(1,1-dimethylethyl) (2,3-dihydroxy-1,4-butanediyl)biscarbamate] | 1200 | –
CC(NC(=O)OC(C)(C)C)C(O)C(O)C(C)NC(=O)OC(C)(C)C (stereo not shown) [Example 4, Bis(1,1-dimethylethyl) (2,3-dihydroxy-1,4-dimethyl-1,4-butanediyl)biscarbamate] | 1250 | –
CC(C)C(NC(=O)OC(C)(C)C)C(O)C(O)C(NC(=O)OC(C)(C)C)C(C)C (stereo not shown) [Example 5, Bis(1,1-dimethylethyl) (2,3-dihydroxy-1,4-(1-methylethyl)-1,4-butanediyl)biscarbamate] | 161 | –
CC(C)CC(NC(=O)OC(C)(C)C)C(O)C(O)C(CC(C)C)NC(=O)OC(C)(C)C (stereo not shown) [Example 6, Bis(1,1-dimethylethyl) (2,3-dihydroxy-1,4-(2-methylpropyl)-1,4-butanediyl)biscarbamate] | 11.1 | –
CC(C)(C)OC(=O)N1CCCC1C(O)C(O)C1CCCN1C(=O)OC(C)(C)C (stereo not shown) [Example 7, Bis(1,1-dimethylethyl) 2,2'-(1,2-dihydroxy-1,2-ethanediyl)-1-bis(pyrrolidinecarboxylate)] | 1250 | –
CC(C)(C)OC(=O)NC(c1ccccc1)C(O)C(O)C(NC(=O)OC(C)(C)C)c1ccccc1 (stereo not shown) [Example 8, Bis (1,1-dimethylethyl) (2,3-dihydroxy-1,4-diphenyl-1,4-butanediyl)biscarbamate] | 1250 | –
O=C(NC(Cc1ccccc1)C(O)C(O)C(Cc1ccccc1)NC(=O)OCc1ccccc1)OCc1ccccc1 (stereo not shown) [Example 9] | 0.914 | –
CC(C)(C)OC(=O)NC(CCc1ccccc1)C(O)C(O)C(CCc1ccccc1)NC(=O)OC(C)(C)C (stereo not shown) [Example 10, Bis(1,1-dimethylethyl) (2,3-dihydroxy-1,4-(2-phenylmethyl)-1,4-butanediyl)biscarbamate] | 1130 | –
CC(C)(C)OC(=O)NC(Cc1ccc(F)cc1)C(O)C(O)C(Cc1ccc(F)cc1)NC(=O)OC(C)(C)C (stereo not shown) [Example 11] | 37.3 | –
CC(C)(C)OC(=O)NC(Cc1ccc(I)cc1)C(O)C(O)C(Cc1ccc(I)cc1)NC(=O)OC(C)(C)C (stereo not shown) [Example 12] | 5.45 | –
CC(C)(C)OC(=O)NC(Cc1ccc(O)cc1)C(O)C(O)C(Cc1ccc(O)cc1)NC(=O)OC(C)(C)C (stereo not shown) [Example 13, Bis(1,1-dimethylethyl) (2,3-dihydroxy-1,4-(4-hydroxyphenyl)methyl-1,4-butaneidyl)biscarbamate] | 6.2 | IC50 (HIV(3b) or HIV(Rf); [3]): 2.3 µg/mL (≈ 4.32 µM); IC90 (HIV(3b) or HIV(Rf); [1]): 25 µg/mL (≈ 46.9 µM)
CC(=O)N[C@@H](Cc1ccccc1)[C@@H](O)[C@H](O)[C@H](Cc1ccccc1)NC(C)=O [Example 14, N,N'-((2,3-dihydroxy-1,4-(phenylmethyl)-1,4-butanediyl))bisacetamide] | 1250 | –
N[C@@H](Cc1ccccc1)[C@H](O)[C@@H](O)[C@@H](N)Cc1ccccc1 [Example 15, 2,5-Diamino-1,6-diphenyl-3,4-hexanediol dihydrochloride] | 866 | –
N[C@@H](Cc1ccccc1)[C@@H](O)[C@H](O)[C@@H](N)Cc1ccccc1 [Example 16, 2,5-Diamino-1,6-diphenyl-3,4-hexanediol dihydrochloride] | 866 | –
CC(N)C(O)C(O)C(C)N (stereo not shown) [Example 17, 2,5-Diamino-3,4-hexanediol dihydrochloride] | 1260 | –
CC(NC(=O)C(NC(=O)OC(C)(C)C)C(C)O)C(=O)NC(C(=O)NC(C)C(=O)NC(Cc1ccccc1)C(O)C(O)C(Cc1ccccc1)NC(=O)C(C)NC(=O)C(NC(=O)C(C)NC(=O)C(NC(=O)OC(C)(C)C)C(C)O)C(C)O)C(C)O (stereo not drawn) [Example 18, Bis(Boc-Thr-Ala-Thr-Ala), N,N'((2,3-dihydroxy-1,4-(phenylmethyl)-1,4-butanediyl))biscarbamate] | – | IC50 (HIV(3b) or HIV(Rf); Human immunodeficiency virus 1, MT2, read-out: Cell Assay IC50): 6 µg/mL (≈ 5.04 µM); IC90 (HIV(3b) or HIV(Rf); Human immunodeficiency virus 1, MT2, read-out: Cell Assay IC90): 12 µg/mL (≈ 10.1 µM); IC50 (HIV protease; read-out: Cell Free Assay): 1.93 µM
CC[C@H](C)[C@H](NC(=O)Cc1ccccn1)C(=O)N[C@@H](Cc1ccccc1)[C@@H](O)[C@H](O)[C@H](Cc1ccccc1)NC(=O)[C@@H](NC(=O)Cc1ccccn1)[C@@H](C)CC [Example 20, 2,5-(N-2-Pyridylacetyl-L-Ile)diamino-1,6-diphenyl-3,4-hexanediol] | 0.0131 | IC50 (HIV(3b) or HIV(Rf); [3]): < 1 µg/mL; IC90 (HIV(3b) or HIV(Rf); [1]): < 1 µg/mL
CCC(C)C(NC(=O)Cc1ccccn1)C(=O)NC(Cc1ccccc1)C(O)C(O)C(Cc1ccccc1)NC(=O)C(NC(=O)Cc1ccccn1)C(C)CC [Example 21, 2,5-(N-2-Pyridyl-L-Ile,N'-2-pyridyl-D-Ile)diamino-1,6-diphenyl-3,4-hexanediol] | 0.00261 | IC50 (HIV(3b) or HIV(Rf); [3]): 6 µg/mL (≈ 7.84 µM)
